From patent publication US20230076733A1, “Combination Therapy” (AGENCY FOR SCIENCE, TECHNOLOGY AND RESEARCH, priority 2020, published 2023)
Where “and” joins values, the source holds several entries; their conditions need not be identical. Equal entries are not always repeated.

Columns and labels:
Format in all cases: cell-based
EGI-1 cells = assay: soft agar colony formation assay, EGI-1 cells; details: for Colony count: duplicate wells
Protocol: (§1) The IC50 and EC50 values for each combination partner (a) and (b) with the specific cell lines are determined from the response plot. A dose-response assay for each combination partner and the combination at different concentrations based on the IC50 values of each combination partner was performed. Computed EC50-EC95 values were then generated by a software (as disclosed herein) based on the drug concentration and the respective colony growth numbers.
(§2) 6. Cell lines used and number of cells seeded per well
(§3) (1) Base Layer—0.6% Agar per 300 μL per well.
(§4) Microwave the agar for 1-2 min so that it is completely melted. Add 5.4 ml of the melted agar into 21.6 ml of pre-warmed media (All media and agar preparation is made in excess for 2.5 plates). Aliquot 300 μl of the suspension into each well, avoiding the first and last columns of the plates. Fill the first and last columns of wells with 500 μl of sterile water or phosphate buffered saline. Incubate the plates in 37° C. incubator for 45 min-1 hr to allow agar to solidify.
(§5) (2) Middle Layer— 0.3% Agar plus corresponding number of cells per well
(§6) Trypsinize the adherent cells and suspend them in 5 ml of media. Determine the number of cells in the suspension and calculate the volume of cell suspension required for seeding. Mix the agar and media together first, excluding the volume of cell suspension. Add the cell suspension last into the mixture. Mix well and aliquot 250 μl into each well containing the base layer. Incubate the plates in a 37° C. incubator for 1-1.5 hrs to allow the agar to solidify.
(§7) Prepare the required concentration of compounds based on the IC50 values of each drug.
(§8) (Pre-determine the IC50 values for each drug with the corresponding cell-line using a dose-response assay)
(§9) Row A& B: Aliquot 250 μl of diluted Drug A per well
(§10) Row C&D: Aliquot 250 μl of diluted Drug B per well
(§11) Row E& F: Aliquot 250 μl of diluted Drug A and B mixed at 1:1 ratio for each well
(§12) Assay Results Analysis Method • 1. Score the colonies after 2 to 3 weeks depending on the colony forming status for different cell line. • 2. Before scoring the colonies, add 35 μl MTT (5 mg/ml) to the wells with cells and incubate at 37° C. for 2-3 hrs depending on the intensity of colour development. • 3. Once the colonies are stained, count the total number of colonies formed using the Oxford Optronix GelCount® instrument. • 4. Average the total number of colonies obtained for each drug dose point and represent it as a fraction over the control. This represents the fraction of colony growth. […] Incorporate the fraction of inhibition and the corresponding dose values into the Chou Talalay Software available online (http://www.combosyn.com/) to obtain the combination index values. • 6. The combination index values will give an indication as to whether the combined drugs are synergistic, antagonistic or additive in the treated cells, as shown in Table 2 below.
FIG. 2 illustrates a dose-response assay plate containing EGI-1 cells (Test 1) after testing compounds at different concentrations based on the IC50 values of each compound. EGI-1 is a cell line established from cholangiocarcinoma (bile duct adenocarcinoma).

CFPAC-1 cells = assay: soft agar colony formation assay, CFPAC-1 cells; details: for Colony count: duplicate wells
Protocol: as §1, §2, §3, §4, §5, §6, §7, §8, §9, §10, §11, §12
FIG. 8 illustrates a dose-response assay plate containing CFPAC-1 cells (Test 1) after testing compounds at different concentrations based on the IC50 values of each compound. CFPAC-1 is a cell line established from cystic fibrosis and pancreatic ductal adenocarcinoma.

HPAF-II cells = assay: soft agar colony formation assay, HPAF-II cells; details: HPAF-II, duplicate wells
Protocol: as §1, §2, §3, §4, §5, §6, §7, §8, §9, §10, §11, §12
FIG. 4 illustrates of a dose-response assay plate containing HPAF-II cells (Test 1) after testing compounds at different concentrations based on the IC50 values of each compound. HPAF-II is a cell line established from pancreatic ductal adenocarcinoma (pancreatic cancer).

TFK-1 cells = assay: soft agar colony formation assay, TFK-1 cells; details: for Colony count: duplicate wells
Protocol: as §1, §2, §3, §4, §5, §6, §7, §8, §9, §10, §11, §12
FIG. 10 illustrates a dose-response assay plate containing TFK-1 cells (Test 1) after testing compounds at different concentrations based on the IC50 values of each compound. TFK-1 is a cell line established from cholangiocarcinoma (bile duct adenocarcinoma).

MCAS cells = assay: soft agar colony formation assay, MCAS cells; details: for Colony count: MCAS, duplicate wells
Protocol: as §1, §2, §3, §4, §5, §6, §7, §8, §9, §10, §11
as §12, with “6.” for “6. The combination index values will give an indication as to whether the combined drugs are synergistic, antagonistic or additive in the treated cells, as shown in Table 2 below.”
MCAS is a cell line established from ovarian mucinous cystadenocarcinoma (ovarian cancer).

O=C(c1cc(Cc2n[nH]c(=O)c3ccccc23)ccc1F)N1CCN(C(=O)C2CC2)CC1 [Olaparib, reference compound]
Colony count (EGI-1 cells; EGI-1, Test 1, 0.25x IC50: dose Olaparib 2.16362, Ex 1 0.00687, combination both 1:1): 1658 and 1605 | Colony count (EGI-1 cells; EGI-1, Test 1, 0.5x IC50: dose Olaparib 4.32725, Ex 1 0.01375, combination both 1:1): 1362 and 1300 | Colony count (EGI-1 cells; EGI-1, Test 1, 1x IC50: dose Olaparib 8.6545, Ex 1 0.0275, combination both 1:1): 935 and 908 | Colony count (EGI-1 cells; EGI-1, Test 1, 2x IC50: dose Olaparib 17.309, Ex 1 0.055, combination both 1:1): 454 and 489 | Colony count (EGI-1 cells; EGI-1, Test 1, 4x IC50: dose Olaparib 34.618, Ex 1 0.11, combination both 1:1): 209 and 197 | Colony count (EGI-1 cells; EGI-1, Test 2, 0.25x IC50: dose Olaparib 2.16362, Ex 1 0.00687, combination both 1:1): 1591 and 1717 | Colony count (EGI-1 cells; EGI-1, Test 2, 0.5x IC50: dose Olaparib 4.32725, Ex 1 0.01375, combination both 1:1): 1403 and 1442 | Colony count (EGI-1 cells; EGI-1, Test 2, 1x IC50: dose Olaparib 8.6545, Ex 1 0.0275, combination both 1:1): 856 and 1052 | Colony count (EGI-1 cells; EGI-1, Test 2, 2x IC50: dose Olaparib 17.309, Ex 1 0.055, combination both 1:1): 445 and 482 | Colony count (EGI-1 cells; EGI-1, Test 2, 4x IC50: dose Olaparib 34.618, Ex 1 0.11, combination both 1:1): 144 and 198 | IC50 (EGI-1 cells; Homo sapiens, EGI-1 cells, pre-determined by dose-response assay): 8.65 µM | Colony count (CFPAC-1 cells; CFPAC-1, Test 1, 0.25x IC50: dose Olaparib 1.5625, Ex 1 0.00675, combination both 1:1): 441 and 429 | Colony count (CFPAC-1 cells; CFPAC-1, Test 1, 0.5x IC50: dose Olaparib 3.125, Ex 1 0.0135, combination both 1:1): 314 and 309 | Colony count (CFPAC-1 cells; CFPAC-1, Test 1, 1x IC50: dose Olaparib 6.25, Ex 1 0.027, combination both 1:1): 259 and 289 | Colony count (CFPAC-1 cells; CFPAC-1, Test 1, 2x IC50: dose Olaparib 12.5, Ex 1 0.054, combination both 1:1): 194 and 196 | Colony count (CFPAC-1 cells; CFPAC-1, Test 1, 4x IC50: dose Olaparib 25, Ex 1 0.108, combination both 1:1): 80 and 97 | Colony count (CFPAC-1 cells; CFPAC-1, Test 2, 0.25x IC50: dose Olaparib 1.5625, Ex 1 0.00675, combination both 1:1): 586 and 545 | Colony count (CFPAC-1 cells; CFPAC-1, Test 2, 0.5x IC50: dose Olaparib 3.125, Ex 1 0.0135, combination both 1:1): 439 and 442 | Colony count (CFPAC-1 cells; CFPAC-1, Test 2, 1x IC50: dose Olaparib 6.25, Ex 1 0.027, combination both 1:1): 328 and 371 | Colony count (CFPAC-1 cells; CFPAC-1, Test 2, 2x IC50: dose Olaparib 12.5, Ex 1 0.054, combination both 1:1): 254 and 255 | Colony count (CFPAC-1 cells; CFPAC-1, Test 2, 4x IC50: dose Olaparib 25, Ex 1 0.108, combination both 1:1): 116 and 111 | IC50 (CFPAC-1 cells; Homo sapiens, CFPAC-1 cells, pre-determined by dose-response assay): 6.25 µM | Colony count (HPAF-II cells; Test 1, 0.25x IC50: dose Olaparib 9.7975, Ex 1 0,001929, combination both 1:1): 522 and 507 | Colony count (HPAF-II cells; Test 1, 0.5x IC50: dose Olaparib 19.535, Ex 1 0.003883, combination both 1:1): 498 and 471 | Colony count (HPAF-II cells; Test 1, 1x IC50: dose Olaparib 39.19, Ex 1 0,007577, combination both 1:1): 381 and 427 | Colony count (HPAF-II cells; Test 1, 2x IC50: dose Olaparib 78.38, Ex 1 0.015354, combination both 1:1): 313 and 244 | Colony count (HPAF-II cells; Test 1, 4x IC50: dose Olaparib 156.76, Ex 1 0.030707, combination both 1:1): 237 and 206 | Colony count (HPAF-II cells; Test 2, 0.25x IC50: dose Olaparib 9.7975, Ex 1 0.001929, combination both 1:1): 550 and 426 | Colony count (HPAF-II cells; Test 2, 0.5x IC50: dose Olaparib 13.595, Ex 1 0.003838, combination both 1:1): 443 and 375 | Colony count (HPAF-II cells; Test 2, 1x IC50: dose Olaparib 39.19, Ex 1 0.007677, combination both 1:1): 278 and 248 | Colony count (HPAF-II cells; Test 2, 2x IC50: dose Olaparib 78.38, Ex 1 0.015354, combination both 1:1): 239 and 172 | Colony count (HPAF-II cells; Test 2, 4x IC50: dose Olaparib 156.76, Ex 1 0.030707, combination both 1:1): 142 and 92 | Colony count (TFK-1 cells; TFK-1, Test 1, 0.25x IC50: dose Olaparib 4.5, Ex 1 3, combination both 1:1): 759 and 668 | Colony count (TFK-1 cells; TFK-1, Test 1, 0.5x IC50: dose Olaparib 9, Ex 1 6, combination both 1:1): 674 and 531 | Colony count (TFK-1 cells; TFK-1, Test 1, 1x IC50: dose Olaparib 18, combination both 1:1): 381 and 437 | Colony count (TFK-1 cells; TFK-1, Test 1, 2x IC50: dose Olaparib 36, Ex 1 24, combination both 1:1): 270 and 204 | Colony count (TFK-1 cells; TFK-1, Test 1, 4x IC50: dose Olaparib 72, Ex 1 48, combination both 1:1): 96 and 75 | Colony count (TFK-1 cells; TFK-1, Test 2, 0.25x IC50: dose Olaparib 4.5, Ex 1 3, combination both 1:1): 737 and 676 | Colony count (TFK-1 cells; TFK-1, Test 2, 0.5x IC50: dose Olaparib 9, Ex 1 6, combination both 1:1): 698 and 621 | Colony count (TFK-1 cells; TFK-1, Test 2, 1x IC50: dose Olaparib 18, combination both 1:1): 447 and 437 | Colony count (TFK-1 cells; TFK-1, Test 2, 2x IC50: dose Olaparib 36, Ex 1 24, combination both 1:1): 267 and 213 | Colony count (TFK-1 cells; TFK-1, Test 2, 4x IC50: dose Olaparib 72, Ex 1 48, combination both 1:1): 148 and 75 | IC50 (TFK-1 cells; TFK-1 cells, pre-determined by dose-response assay): 18 µM | IC50 (MCAS cells; MCAS cells, pre-determined by dose-response assay): 3.98 µM | Colony count (MCAS cells; Test 1, 0.25x IC50: dose Olaparib 0.99475, Ex 1 0.07175, combination both 1:1): 429 and 425 | Colony count (MCAS cells; Test 1, 0.5x IC50: dose Olaparib 1.9895, Ex 1 0.1435, combination both 1:1): 363 and 402 | Colony count (MCAS cells; Test 1, 1x IC50: dose Olaparib 3.979, Ex 1 0.287, combination both 1:1): 273 and 227 | Colony count (MCAS cells; Test 1, 2x IC50: dose Olaparib 7.958, Ex 1 0.574, combination both 1:1): 188 and 141 | Colony count (MCAS cells; Test 1, 4x IC50: dose Olaparib 15.918, Ex 1 1.148, combination both 1:1): 112 and 97 | Colony count (MCAS cells; Test 2, 0.25x IC50: dose Olaparib 0.99475, Ex 1 0.07175, combination both 1:1): 951 and 929 | Colony count (MCAS cells; Test 2, 0.5x IC50: dose Olaparib 1.9895, Ex 1 0.1435, combination both 1:1): 741 and 668 | Colony count (MCAS cells; Test 2, 1x IC50: dose Olaparib 3.979, Ex 1 0.287, combination both 1:1): 393 and 359 | Colony count (MCAS cells; Test 2, 2x IC50: dose Olaparib 7.958, Ex 1 0.574, combination both 1:1): 155 | Colony count (MCAS cells; Test 2, 4x IC50: dose Olaparib 15.916, Ex 1 1.148, combination both 1:1): 85 and 82
